{"source": "patent US20100098737A1", "about": "“METHODS AND COMPOSITIONS FOR DELIVERY OF GLYCOPEPTIDE ANTIBIOTICS TO MEDICAL DEVICE SURFACES” (priority 2008, published 2010)", "key": {"S. aureus MZ100": {"system": "S. aureus MZ100", "test": "in vitro infection model on titanium pins, colony counts", "format": "cell-based", "conditions": "composition 5 μM + vancomycin 100 μM, two hours incubation", "method": "Acetone-sterilized titanium pins (1 mm diameter, 12 mm long) were first washed in PBS. These pins were then incubated in a solution (PBS) containing the respective composition (5 μM)+vancomycin (100 μM) for 15 minutes at room temperature, with intermittent inversion for coating. Each pin was then washed extensively in PBS and placed in 30 μL of S. aureus MZ100 cultured at 10^6 colony forming units (cfu) per mL, according to methods above. The coated pins were then inoculated in 30 mm lengths of 1.5 mm diameter silicone tubing, with closed ends. After incubation for two hours with shaking, the pin was placed in a new tube containing 1 mL PBS. After inverting several times, PBS was aspirated, and replaced with a fresh 1 mL of PBS. The pins were then sonicated at 20 kHz for four cycles of 15 seconds each. Supernatants (100 μL) and dilutions were plated on trypticase soy agar (TSA) plates, incubated for 24 hours at 37° C., and colonies were counted. An assay control included the same steps of the infection model, except that the pin is uncoated pin (i.e., without composition according to the presently disclosed subject matter bound thereto) (“Control”). As representative examples, compositions comprising the amino acid sequences of SEQ ID NOs: 125 and 126 were tested for antimicrobial activity using the in vitro infection model (see, Table 7, “A” & “B”, respectively)."}, "[1]": {"test": "binding assay for gentamycin, similar format as for vancomycin", "conditions": "aminoglycoside antibiotic"}, "[2]": {"test": "binding assay: biotinylated synthetic peptide on streptavidin plate, titrated with biotinylated glycopeptide antibiotic", "method": "A typical binding assay for glycopeptide antibiotic was performed according to the following procedure. Briefly, synthetic peptides comprising an amino acid sequence to be characterized for binding were biotinylated to facilitate immobilization on streptavidin-coated 96-well plates. The microtiter plates were coated with streptavidin by adding 50 μl of a 10 μg/ml streptavidin solution in 0.1M NaHCO3, and incubating the plates for at least 3 hours. The plate wells were blocked by adding 150 μl of a 1% BSA solution in 0.1 NaHCO3 with incubation for at least 2 hours, and the plates were stored at 4° C. until needed. Before use, the streptavidin plates were washed extensively in buffer-T. Added per well was peptide (100 μl 0.1 μM peptide in buffer-T), and then incubated for 30 minutes at room temperature with shaking. 200 μl of 0.5 mM biotin in buffer-T was added to block the remaining streptavidin sites, and plates were incubated for 15 minutes at room temperature. Plates were then washed with buffer-T to remove the excess biotin and peptide. Serial dilutions of biotinylated glycopeptide antibiotic in buffer-T were added (100 μl) to each well, representing a range of concentrations between 100 pM and 100 μM. Plates were incubated for 30 minutes at room temperature with shaking prior to washing several times with buffer-T. Glycopeptide antibiotic was then detected by adding 100 μl of a diluted streptavidin-alkaline phosphatase conjugate to each well and incubated at room temperature for 30 minutes. Excess conjugate was removed by repeated washes with buffer-T, and the amount of alkaline phosphatase remaining in the well was detected using a pNPP (para-nitrophenylphosphate) colorimetric enzymatic assay. The relative amount of glycopeptide antibiotic captured by the peptides was determined by measuring the absorbance at 405 nm of the colored product of the alkaline phosphatase reaction. The EC50 was determined for each peptide relative to the binding affinity for the glycopeptide antibiotic used in the assay, as shown in Table 1 (with vancomycin as a representative glycopeptide antibiotic).\nA typical binding assay for glycopeptide antibiotic was performed according to the following procedure. The concentrations of the alkaline-phosphatase linked variant peptides were normalized to equal levels based on the alkaline-phosphatase activity as determined in a kinetic assay with the alkaline-phosphatase specific chromogenic substrate p-nitrophenyl phosphate (p-NPP). A streptavidin coated microtiter plate was coated with biotinylated vancomycin. Serial dilutions of normalized alkaline-phosphatase linked peptides were allowed to bind to the immobilized vancomycin and detected by addition of the alkaline-phosphatase specific chromogenic substrate p-NPP. Relative affinity for peptide binding to the immobilized vancomycin was determined by measuring the absorbance at 405 nm of the colored product of the alkaline phosphatase reaction. […] EC50 values for the synthetic peptides binding to vancomycin were determined as described in Example 1 and are shown in Table 3. Preferred are peptides that bind to glycopeptide antibiotic with binding affinity of EC50 of less than or equal to about 1 μM, and more preferably, in the nanomolar range (e.g., <0.1 μM)."}, "[3]": {"system": "binding between vancomycin and a peptide comprising SEQ ID NO:1", "test": "inhibition by Lys-D-Ala-D-Ala of binding between vancomycin and peptide SEQ ID NO:1", "method": "As an example, illustrated is the inhibition by Lys-D-Ala-D-Ala of specific binding between vancomycin and a peptide comprising the amino acid sequence of SEQ ID NO:1. To the wells of a 96 well plate coated with streptavidin was added 100 μl of a 0.2 μM solution of biotinylated peptide in buffer-T. After incubation, the wells were blocked by adding 200 μl of a 0.5 mM solution of biotin in buffer-T. The plates were then washed three times with buffer-T. Serial dilutions of Lys-D-Ala-D-Ala were prepared, and added individually to the wells such that Lys-D-Ala-D-Ala ranged in a final concentration of from about 1 μM to about 200 μM (in a volume of 35 μl). Also added to each well was 35 μl of biotinylated vancomycin (20 nM final concentration), and the plate was incubated at 30 minutes for room temperature. The wells were then washed three times with buffer-T, followed by the addition of 100 μl of streptavidin-alkaline phosphatase conjugate (1 mg/ml diluted 1:500 in buffer-T). Following a 30 minute incubation, the wells were washed five times with buffer-T. Added to each well was 100 μl of pNPP, followed by colorimetric detection after 12 minutes at an absorbance of 405 nm."}, "vancomycin [4]": {"molecular_target": "vancomycin", "test": "retention of BODIPY-FL vancomycin on titanium beads with the peptide composition, followed from 45 minutes to 100 hours"}, "vancomycin [5]": {"molecular_target": "vancomycin", "test": "titanium beads with 10 µM peptide composition and 200 µM vancomycin, washed, vancomycin eluted with HCl and measured by HPLC"}}, "note": "Read-outs that look alike come from different tables or passages of the source. *1 amine or outer side, *2 acyl side, *3 side chain or, on linkers, in order; H or OH if unused. Bridges are numbered along the chain shown (N, C = ends). Where no end group is shown, it is not given here. [ ]: non-standard residue; d: D form. The star is where a group is joined. (miniPEG)2 = linker of two miniPEG units, each HN-CH2CH2-O-CH2CH2-O-CH2-C(=O), O=C(COCCOCCN[*:1])NCCOCCOCC(=O)[*:2]; Myristoyl = CCCCCCCCCCCCCC(=O)*; Aun = NCCCCCCCCCCC(=O)O; Ahx = NCCCCCC(=O)O"}
{"molecule": "AUD-AUD-AUD-SSCLIDIYGVCHNFDAY-(miniPEG)2-HKKNNPKKKNKTRGSSK ([Aun][Aun][Aun]SSCLIDIYGVCHNFDAY[miniPEG][miniPEG]HKKNNPKKKNKTRGSSK; disulfide 6-14 (inferred)) [SEQ ID NO: 126]", "values": [{"measurement": "# of bacterial colonies (CFU)", "setting": "S. aureus MZ100", "value": "<10", "unit": "CFU"}]}
{"molecule": "CLIDMYGVCHNFDGAYDS [compound 1]", "values": [{"measurement": "binding affinity for gentamycin", "setting": "[1]", "value": "lacked significant binding affinity"}, {"measurement": "EC50", "setting": "[2]; synthetic peptides binding to vancomycin, read-out: EC50, binding to glycopeptide antibiotic", "value": "< 0.1", "unit": "µM"}, {"measurement": "EC50", "setting": "[2]; synthetic peptides, biotinylated vancomycin, read-out: EC50 (μM) for vancomycin binding", "value": 0.1, "unit": "µM"}]}
{"molecule": "Lys-D-Ala-D-Ala (Lys-[dA]-[dA])", "values": [{"measurement": "inhibition of binding between vancomycin and peptide", "setting": "[3]; Lys-D-Ala-D-Ala between 100 μM to 200 μM", "value": "~100", "unit": "%"}, {"measurement": "IC50", "setting": "[3]; biotinylated vancomycin 20 nM, read-out: concentration needed to inhibit about 50% of the binding between vancomycin and peptide", "value": "~10000", "unit": "nM"}]}
{"molecule": "Myr-Ahx-SSCLIDIYGVCHNFDAY-(miniPEG)2-HKKNNPKKKNKTRGSSK ({Myristoyl-Ahx}-SSCLIDIYGVCHNFDAY[miniPEG][miniPEG]HKKNNPKKKNKTRGSSK; disulfide 3-11 (inferred)) [SEQ ID NO: 125]", "values": [{"measurement": "# of bacterial colonies (CFU)", "setting": "S. aureus MZ100", "value": 100, "unit": "CFU"}]}
{"molecule": "H-SSSCLIDMYGVCHNFDGAYDSSRG[(miniPEG)2]SSHRTNHKKNNPKKKNKTRGSSGK-NH2 (disulfide 4-12 (inferred))", "note": "[peptide composition comprising SEQ ID NO: 120]", "values": [{"measurement": "percent of BODIPY-FL vancomycin remaining on the metal surface after 3 hours", "setting": "vancomycin [4]", "value": 50, "unit": "%"}, {"measurement": "Picomoles vancomycin/cm^2 (picomoles/cm^2)", "setting": "vancomycin [5]", "value": 61}]}
